This is an account of results in patent publication US8546376B2, “Pharmaceutical compounds” (Almac Discovery Limited, priority 2009, dated 2013).

Where a name gives a salt, the structure may show the parent alone.

Holding throughout (format): biochemical
One experiment addresses T1, AKT2 (Homo sapiens, UniProt P31751).
T1 construct: purchased SignalChem
Nature of the experiment: AKT Kinase Assay (IMAP fluorescent polarisation) vs AKT2. As to conditions: activated AKT2, FAM Crosstide substrate. In short, it runs like this: (§1)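 IC50 values came from non-linear regression of % inhibition relative to vehicle, measured by IMAP fluorescence polarisation (485/528 nm) after a 1 h room-temperature reaction of FAM-Crosstide and ATP. Each activated isoform was first exposed to compound for 45 min across fourteen half-log doses.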

Another experiment addresses T2, AKT1 (Homo sapiens, UniProt P31749).
T2 construct: purchased SignalChem
As to the kind of experiment: AKT Kinase Assay (IMAP fluorescent polarisation) vs AKT1. As to conditions: activated AKT1, FAM Crosstide substrate. In a few lines:
as §1

The next experiment has as its target T3, AKT3 (Homo sapiens, UniProt Q9Y243).
T3 construct: purchased SignalChem
Nature of the experiment: AKT Kinase Assay (IMAP fluorescent polarisation) vs AKT3. Particulars: activated AKT3, FAM Crosstide substrate. In a few lines: as §1

T1 sequence (P31751 whole entry): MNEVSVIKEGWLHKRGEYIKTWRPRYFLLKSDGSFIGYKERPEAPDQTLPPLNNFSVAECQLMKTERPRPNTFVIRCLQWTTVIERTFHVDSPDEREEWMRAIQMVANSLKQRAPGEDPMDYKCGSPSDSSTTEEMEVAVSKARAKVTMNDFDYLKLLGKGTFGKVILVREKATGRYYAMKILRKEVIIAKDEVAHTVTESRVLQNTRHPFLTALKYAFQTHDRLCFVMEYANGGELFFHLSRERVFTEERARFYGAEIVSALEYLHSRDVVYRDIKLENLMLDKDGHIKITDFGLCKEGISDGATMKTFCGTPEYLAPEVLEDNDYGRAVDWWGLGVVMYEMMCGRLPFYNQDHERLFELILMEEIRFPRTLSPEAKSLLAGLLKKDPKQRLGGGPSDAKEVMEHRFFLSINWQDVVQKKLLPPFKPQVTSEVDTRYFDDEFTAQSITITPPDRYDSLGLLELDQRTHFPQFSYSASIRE
T3 sequence (Q9Y243 whole entry): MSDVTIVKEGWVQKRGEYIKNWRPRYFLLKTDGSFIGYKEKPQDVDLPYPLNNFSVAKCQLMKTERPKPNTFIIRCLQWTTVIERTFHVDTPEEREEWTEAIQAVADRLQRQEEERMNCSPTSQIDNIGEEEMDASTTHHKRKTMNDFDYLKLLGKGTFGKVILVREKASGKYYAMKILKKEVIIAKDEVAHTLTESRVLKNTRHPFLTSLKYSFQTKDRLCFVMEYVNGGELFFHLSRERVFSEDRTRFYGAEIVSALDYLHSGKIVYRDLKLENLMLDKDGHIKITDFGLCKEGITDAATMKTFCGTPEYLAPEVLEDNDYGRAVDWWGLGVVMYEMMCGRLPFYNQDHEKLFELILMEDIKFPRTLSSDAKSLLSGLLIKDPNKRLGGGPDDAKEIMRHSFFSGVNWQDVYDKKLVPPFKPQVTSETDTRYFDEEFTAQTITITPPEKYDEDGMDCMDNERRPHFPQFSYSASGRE
T2 sequence (P31749 whole entry): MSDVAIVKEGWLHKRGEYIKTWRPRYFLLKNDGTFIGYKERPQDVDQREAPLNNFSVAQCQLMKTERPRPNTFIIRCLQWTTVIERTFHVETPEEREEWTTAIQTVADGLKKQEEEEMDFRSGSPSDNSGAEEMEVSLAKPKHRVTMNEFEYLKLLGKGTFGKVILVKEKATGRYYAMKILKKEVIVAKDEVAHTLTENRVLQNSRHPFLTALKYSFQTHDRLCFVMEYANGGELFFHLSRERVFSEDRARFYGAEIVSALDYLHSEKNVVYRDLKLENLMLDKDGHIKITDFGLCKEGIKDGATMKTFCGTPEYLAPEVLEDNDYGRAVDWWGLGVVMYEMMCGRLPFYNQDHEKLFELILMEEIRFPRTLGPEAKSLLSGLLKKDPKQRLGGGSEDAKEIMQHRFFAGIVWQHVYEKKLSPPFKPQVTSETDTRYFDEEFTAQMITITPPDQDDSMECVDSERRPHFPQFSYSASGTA

`NC1(c2ccc(-c3c(-c4ccccc4)oc4c(ccc5nc(C(F)(F)F)[nH]c54)c3=O)cc2)CCC1` [Example 94, 7-[4-(1-Amino-cyclobutyl)-phenyl]-8-Phenyl-2-trifluoromethyl-1H-chromeno[7,8-d]imidazol-6-one]: the IC50 (commonly the midpoint of a concentration-inhibition curve) on AKT2 is 1000 to 10000 nM; at AKT1, ≤ 1000 nM; on AKT3, > 10 µM.
For the compound `NC1(c2ccc(-c3c(-c4ccccc4)oc4c(-c5ccccc5)nccc4c3=O)cc2)CCC1` [Example 124, 3-(4-(1-aminocyclobutyl)phenyl)-2,8-diphenyl-4H-pyrano[2,3-c]pyridin-4-one], the IC50 at AKT2 is 1000 to 10000 nM; at AKT1, ≤ 1000 nM; at AKT3 it was 1 to 10 µM.
For `COc1cccc2c(=O)c(-c3ccc(C4(N)CCC4)cc3)c(-c3ccccc3)oc12` [Example 16, 3-[4-(1-Amino-cyclobutyl)-phenyl]-8-methoxy-2-phenyl-chromen-4-one], in that order: 1000 to 10000 nM, 1000 to 10000 nM and 1 to 10 µM.
For `NC1(c2ccc(-c3c(-c4ccccc4)oc4c(ccc5[nH]c(=O)[nH]c54)c3=O)cc2)CCC1` [Example 87, 7-[4-(1-Amino-cyclobutyl)-phenyl]-8-phenyl-1,3-dihydro-chromeno[7,8-d]imidazole-2,6-dione], in that order: ≤ 1000 nM, ≤ 1000 nM and > 10 µM.
As to `NC1(c2ccc(-c3c(-c4ccccc4)oc4c(-n5cnnc5)nccc4c3=O)cc2)CCC1` [Example 102, 3-[4-(1-Amino-cyclobutyl)-phenyl]-2-phenyl-8-[1,2,4]triazol-4-yl-pyrano[2,3-c]pyridin-4-one hydrochloride], the IC50 is 1000 to 10000 nM at AKT2, ≤ 1000 nM at AKT1 and > 10 µM at AKT3.
Turning to `NC1(c2ccc(-c3c(-c4ccccc4)oc4ccc(Br)cc4c3=O)cc2)CCC1` [Example 19, 3-[4-(1-Amino-cyclobutyl)-phenyl]-6-bromo-2-phenyl-chromen-4-one], the IC50 at AKT2 was in the range of 1000 to 10000 nM; at AKT1 it was 1000 to 10000 nM; on AKT3 it was 1 to 10 µM.
Turning to `Cc1nc2ccc3c(=O)c(-c4ccc(C5(N)CCC5)cc4)c(-c4ccccc4)oc3c2[nH]1` [Example 89, 7-[4-(1-Amino-cyclobutyl)-phenyl]-2-methyl-8-phenyl-1H-chromeno[7,8-d]imidazol-6-one], the IC50 at AKT2 is ≤ 1000 nM; on AKT1 it was ≤ 1000 nM; at AKT3 it was 1 to 10 µM.
Regarding `Cc1noc(C)c1-c1cccc2c(=O)c(-c3ccc(C4(N)CCC4)cc3)c(-c3ccccc3)oc12` [Example 78, 3-[4-(1-Amino-cyclobutyl)-phenyl]-8-(3,5-dimethyl-isoxazol-4-yl)-2-phenyl-chromen-4-one], the concentration for half-maximal inhibition (IC50) fell in the range of 1000 to 10000 nM at AKT2, 1000 to 10000 nM on AKT1 and 1 to 10 µM at AKT3.
`COCCn1ccc2c(=O)c(-c3ccc(C4(N)CCC4)cc3)c(-c3ccccc3)oc2c1=O` [Example 31, 3-[4-(1-Amino-cyclobutyl)-phenyl]-7-(2-methoxy-ethyl)-2-phenyl-7H-pyrano[2,3-c]pyridine-4,8-dione]: the IC50 was 1000 to 10000 nM on AKT2, > 10000 nM on AKT1 and 1 to 10 µM on AKT3.
The matching figures for `COc1cc2oc(-c3ccccc3)c(-c3ccc(C4(N)CCC4)cc3)c(=O)c2cc1C` [Example 7, 3-[4-(1-Amino-cyclobutyl)-phenyl]-7-methoxy-6-methyl-2-phenyl-chromen-4-one]: 1000 to 10000 nM, 1000 to 10000 nM and > 10 µM.
Take `NC1(c2ccc(-c3c(-c4ccccc4)oc4c(ccc5nc(C(F)F)[nH]c54)c3=O)cc2)CCC1` [Example 95, 7-[4-(1-Amino-cyclobutyl)-phenyl]-2-difluoromethyl-8-phenyl-1H-chromeno[7,8-d]imidazol-6-one]: the results for the IC50 on AKT2, at AKT1 and at AKT3 were ≤ 1000 nM, ≤ 1000 nM and 1 to 10 µM, respectively.
